According to US20140045809A1, “CORROLES FOR NEUROPROTECTION AND NEURORESCUE” (priority 2008, published 2014):
Like-named read-outs stand apart in the source and are kept apart here.

Columns and labels:
[1] = Rescuing DMSO from damage attributed to the hydroxyl radical (Fenton reaction); format: biochemical; conditions: for Yield (%) or amount of product (Formaldehyde): substrate DMSO; for preventing oxidative damage / protection against metal-induced oxidation of substrates: summary of Table 3
Description: Corrole complexes were examined with respect to their efficiency of rescuing DMSO from damage attributed to the hydroxyl radical, formed via the Fenton reaction that also involves superoxide anion radical and hydrogen […]. It also mimics reaction occurring in biological systems that are exposed to metal toxicity, the situation that occurs in diseases caused by brain iron accumulation.

[2] = SOD activity (catalytic decomposition of superoxide anion radical), cytochrome C assay; format: biochemical
Protocol: (§1) SOD activity (enzyme-like catalytic decomposition of superoxide anion radical) of the corroles 1C-Fe, 6C-Fe, 1C-Mn, 1C-Cu, 2C-Mn and 3C-Mn was examined via the cytochrome C assay. The catalytic rate constants for decomposition of peroxynitrite (PN) by the newly prepared iron corrole 6C-Fe and manganese corrole 3C-Mn were determined via stopped-flow kinetics as previously described for corroles 1C-Fe, 1C-Mn, and 2C-Mn (Mahammed and Gross, 2006; Gershman et al., 2007). These tests are performed in order to estimate how electronic and structural variables affect reactivity, which is a crucial factor for design of new complexes.

[3] = Catalytic decomposition of peroxynitrite (PN), stopped-flow kinetics (Table 1); format: biochemical
Protocol: as §1

[4] = tested on: cleaved caspase-3; assay: Cleaved caspase-3 level in 6-OHDA-treated SH-SY5Y cells, immunofluorescence; format: cell-based, human; conditions: 20 μM, 30 min before 6-OHDA (40 μM), 24 h
Protocol: SH-SY5Y cells were pretreated with or without corroles 1C-Fe, 2C-Mn and 3C-Mn and porphyrins 1P-Fe and 2P-Mn (20 μM), 30 min before exposure to 6-OHDA (40 μM) for a subsequent 24 h period. Cell viability was evaluated by MTT test and cell death was assessed using the apoptotic cell death detection ELISA kit. For neurorescue, SH-SY5Y cells were first exposed to 40 μM 6-OHDA for 0.5. 1, 1.5 and 3 h, followed by the addition of the compounds 1C-Fe, 2C-Mn and 3C-Mn (20 μM) and incubated for further 24 h. Growth-associated protein (GAP-43) was detected by fluorescence microscopy using a specific primary antibody. Apoptotic nuclei were determined by terminal deoxynucleotidyl transferase-mediated UTP-digoxigenin nick end labeling analysis. 4′,6-Diamidino-2-phenylnidole (DAPI) staining was applied for nuclear labeling. […]
Since 6-OHDA is also known to induce apoptosis in various cell types, including SH-SY5Y (von Coelln et al. 2001; Nie et al. 2002; Shimizu et al. 2002; Jordan et al. 2004), we further tested effect of corroles on the levels of the apoptotic marker, cleaved caspase-3, a major executer of the mitochondrial intrinsic pathway of apoptosis.

[5] = tested on: INS-1E cells; assay: Protection of INS-1E beta cells against H2O2 toxicity; format: cell-based, rat; conditions: 20 and 50 μM, 30 min before increasing H2O2 concentrations, 24 h
Protocol: Two insulin-secreting beta cell lines, rat insulinoma (INS-1E) and RIN-m cells, were used to examine the protective effect of corrole 1C-Fe. The cells were cultured at 37° C., in a humid 5% CO2, 95% air environment in regular RPMI-1640 medium (Invitrogen) supplemented with 5% fetal calf serum (FCS).
After 2 days of culture, INS-1E cells (5×10^4 cells/well in 96-well plates) were treated with corrole 1C-Fe (20 and 50 μM) added 30 minutes prior to treatment with increasing concentrations of H2O2 and then further incubated for 24 h.

[6] = tested on: SH-SY5Y cells; format: cell-based
Protocol: Human neuroblastoma cell line was also examined under conditions similar to RIN-m cells to reveal the corrole's ability to prevent neuronal death caused by oxidative stress. SH-SY5Y cells were plated in microtiter plates (96 wells) in DMEM-Eagle/F-12(HAM) (1:1), containing 10% FCS. To examine neuroprotective effect, SH-SY5Y cells were treated for 30 min with corroles 1C-Fe and 5C-Fe (20 and 50 μM) before addition of 20 μM H2O2 for 24 h. To examine neurorescue, SH-SY5Y cells were first exposed to 20 μM H2O2 for 0.5 h, 1.5 h or 3 h, followed by the addition of corroles 1C-Fe and 5C-Fe (20 μM) and incubation for 24 h.
Compounds 1C-Fe and 1P-Fe (1-50 μM) were added 30 min before insult with H2O2 (200 μM), followed by a subsequent 24 h period. The neuroprotective effects of the iron corrole 1C-Fe and its structurally analogous iron porphyrin 1P-Fe, against H2O2-induced neurotoxicity were investigated using MTT reduction assay and cell death ELISA, based on the use of mouse monoclonal antibodies to detect free histones and fragmented DNA (F. Hollderieder et al, Biochemica 2002, 1, 25). […] In light of the observed neuroprotective effect of corrole 1C-Fe, we attempted to determine the length of the delay between H2O2 exposure and corrole 1C-Fe treatment that would still afford neuroprotection. H2O2 was administered to SH-SY5Y cells and corrole 1C-Fe was then added for 0.5-1.5 h thereafter. […]

[7] = tested on: INS-1E cells; assay: Protection of INS-1E cells against SIN-1 toxicity (MTT); format: cell-based, rat; conditions: 10 μM, 30 min before SIN-1 (500 or 600 μM), 24 h
Protocol: INS-1E cells or RIN-m cells were cultured in RPMI with low serum content (2% FCS), placed in microtiter plates (96 wells) at a density of 2.5×10^4 cells/well and allowed to attach for 24 h before treatment. Corroles 1C-Fe and 5C-Fe (10 μM) were added 30 min prior to insult with the nitric oxide donor SIN-1 (500 or 600 μM) for a subsequent 24 h period. Cell viability was evaluated by a colorimetric assay for mitochondrial function using 3-(4,5-dimethylthiazol-2-yl)-2,5-diphenyltetrazolium bromide (MTT test), and expressed as percentage of untreated control. Values higher than 100% reflect increased mitochondrial activity induced by the drug. The results represent the mean±SEM of three independent experiments performed under the same conditions.

[8] = CuSO4/ascorbate, no additive 44 μM
[9] = CuSO4/glutathione, no additive 11 μM

SMILES | Yield (%) or amount of product (Formaldehyde) [1, 8] [µM] | Yield (%) or amount of product (Formaldehyde) [1, 9] [µM] | preventing oxidative damage / protection against metal-induced oxidation of substrates [1] | IC50 [2] [µM] | kcat, catalytic rate constant for decomposition of PN [3] [M⁻¹ s⁻¹] | 6-OHDA-induced increase of cleaved caspase-3 [4] | protective effect against H2O2 toxicity [5] | neurorescue after H2O2 insult ([6]; 20 μM H2O2 for 0.5, 1.5 or 3 h, then 20 μM corrole, 24 h) | cell viability (MTT reduction) ([6]; 1-20 μM, 30 min before 200 μM H2O2, 24 h) | neuroprotective effect, corrole added after H2O2 ([6]; 1 and 1.5 h post-H2O2 insult, extent of protection gradually decreased) | neuroprotective effect against H2O2-induced toxicity ([6]; 20 and 50 μM, 30 min before 20 μM H2O2, 24 h) | cell death (ELISA detection assay) ([6]; 30 min before 200 μM H2O2, 24 h) | neuroprotective effect, corrole added after H2O2 ([6]; 0.5 h post-H2O2 insult) | protection from H2O2-induced neurotoxicity compared with porphyrin ([6]; all concentrations studied (1-50 μM), 200 μM H2O2) | protective effect against SIN-1 induced toxicity (MTT) [7]
C[n+]1ccc(C2=C3C=CC4=[N+]3[Mn-]35[n]6c2ccc6-c2ccc([n]23)C(c2cc[n+](C)cc2)=c2ccc([n]25)=C4c2c(F)c(F)c(F)c(F)c2F)cc1.[I-].[I-] (stereo not drawn) [2C-Mn, 5,15-bis(4-N-methyl-pyridilium)-10-pentafluorophenyl-corrolato manganese(III) diiodide salt] | 7 | 5 | protect better than corrole 1C-Mn | 1.52 | 400000 | totally | – | – | – | – | – | – | – | – | –
O=S(=O)(O)c1cc2[n]3c1C(c1c(F)c(F)c(F)c(F)c1F)=C1C=CC4=[N+]1[Fe-]31[n]3c(cc(S(=O)(=O)O)c3-2)C(c2c(F)c(F)c(F)c(F)c2F)=c2ccc([n]21)=C4c1c(F)c(F)c(F)c(F)c1F (stereo not drawn) [1C-Fe, 2,17-bis(sulfonato)-5,10,15-tris(pentafluorophenyl)-corrolato iron(III)] | 0 | 0 | very potent in preventing the oxidative damage | 1.64 | 2e+06 | abolished partially | significant protective effect | instigated neurorescue | dose-dependently increased cell viability | significantly protected | dose-dependent neuroprotective effect | significantly and dose-dependently protected | remained unaltered | displayed superiority over porphyrin 1P-Fe | marked protective effect
